From patent US20110070232A1, “Combination Therapy with an Antitumor Alkaloid” (Pharma Mar, S.A., priority 2008, published 2011)
Where two headings read alike, the source gives them in different places.

How the values were obtained:
[1] = system: CaLu-6 tumors; type: in vivo, mice
Procedure: Female athymic nude mice (Harlan Sprague Dawley, Madison, Wis.) were utilized for all experiments. Animals were housed in ventilated rack caging with food and water ad libitum. The mice were acclimated for at least 5 days prior to tumor implantation.
The tumor model used in this study was CaLu-6 cell line which is a human lung cancer cell line obtained from the ATCC (Manassas, Va.). CaLu-6 cells were grown in Eagle's Minimum Essential Medium (MEM), 10% FBS and 2 mM L-glutamine. Cells from in vitro passage 12 were implanted SC into study mice using a 1 ml syringe with a 13G trocar: 5×10^6 cells/mouse in 0.2 ml 50% Matrigel/50% MEM medium of CaLu-6 without serum or antibiotics. Bacterial culture was taken on cells used to implant the study.
When tumors reached an appropriated volume, within the size range of 99±17 mm^3 (mean±SD), mice were randomized into the treatment and control groups based on tumor weight by using LabCat® In Life module V 8.0 SP1 tumor tracking and measurement software. Treatments were initiated on DPI 9.
Tumor size measurements were recorded 2-3 times/week from the treatment initiation until the termination of the study.
(§1) Mean, standard deviation and standard error of the mean were determined for tumor volume for all animal groups at all assessments. Student's t test was performed on tumor volumes at each measurement day, including at the end of the study, to determine whether there were any statistically significant differences between combination treatment groups and single monotherapy treatment groups.

[2] = system: NCI-H23 (lung cancer) cell line; test: IC50 determination, MIT (tetrazolium) assay, 72 h (Example 18); type: cell-based, human; settings: NCI-H23, 72 hours of drug exposure
Procedure: NCI-H23 cells were grown in RPMI supplemented with 10% Fetal Bovine Serum (FBS), 1% penicillin/streptomycin and 2 mM L-glutamine.
Before plating, cell cultures were trypsinized and cell number estimated using an automated flow cytometer.
Cells were harvested and seeded in 96 well microtiter plates at the appropriate cell density (5,000-10,000 cells) in 150 μL of media and incubated for 24 hours to allow the cells to attach before drug addition.
After the incubation period (72 hours), 50 μL of MIT solution was added to each microtiter well and incubated for further 8 hours at 37° C. The culture medium was then removed and 50 μl, of DMSO were added to dissolve the MIT crystals. Optical densities were read at 540 nm on spectrophotometer microplate reader.
IC50 values were calculated from an average of two to four assays for each of the test agents.

[3] = system: MRI-H-254 tumors; type: in vivo, mice
Procedure: Female athymic nude mice (Harlan Sprague Dawley, Madison, Wis.) were utilized for all experiments. Animals were housed in ventilated rack caging with food and water ad libitum. The mice were acclimated for at least 5 days prior to tumor implantation with tumor fragments.
Treatments were initiated on DPI 16.
Tumor size measurements were recorded twice weekly from the treatment initiation until the termination of the study.
as §1

[4] = Gemcitabine 90 mg/kg/day IP, alone or with PM00104 0.9 mg/kg/day IV
[5] = PM00104 0.9 mg/kg/day IV and/or Gemcitabine 180 mg/kg/day IP
[6] = day 16, PM00104 0.90, cisplatin 3, irinotecan 10, paclitaxel 12.5 mg/kg/day
[7] = day 16, PM00104 0.90, cisplatin 5, irinotecan 18, paclitaxel 25 mg/kg/day
[8] = day 20, PM00104 0.90, cisplatin 3, irinotecan 10, paclitaxel 12.5 mg/kg/day
[9] = day 20, PM00104 0.90, cisplatin 5, irinotecan 18, paclitaxel 25 mg/kg/day
[10] = day 23, PM00104 0.90, cisplatin 3, irinotecan 10, paclitaxel 12.5 mg/kg/day
[11] = day 23, PM00104 0.90, cisplatin 5, irinotecan 18, paclitaxel 25 mg/kg/day
[12] = day 26, PM00104 0.90, cisplatin 3, irinotecan 10, paclitaxel 12.5 mg/kg/day
[13] = day 26, PM00104 0.90, cisplatin 5, irinotecan 18, paclitaxel 25 mg/kg/day
[14] = day 29, PM00104 0.90, cisplatin 3, irinotecan 10, paclitaxel 12.5 mg/kg/day
[15] = day 29, PM00104 0.90, cisplatin 5, irinotecan 18, paclitaxel 25 mg/kg/day
[16] = day 33, PM00104 0.90, cisplatin 3, irinotecan 10, paclitaxel 12.5 mg/kg/day
[17] = day 33, PM00104 0.90, cisplatin 5, irinotecan 18, paclitaxel 25 mg/kg/day
[18] = day 40, PM00104 0.90, cisplatin 3, irinotecan 10, paclitaxel 12.5 mg/kg/day
[19] = day 40, PM00104 0.90, cisplatin 5, irinotecan 18, paclitaxel 25 mg/kg/day
[20] = day 48, PM00104 0.90, cisplatin 3, irinotecan 10, paclitaxel 12.5 mg/kg/day
[21] = day 48, PM00104 0.90, cisplatin 5, irinotecan 18, paclitaxel 25 mg/kg/day

## Nc1ccn([C@@H]2O[C@H](CO)[C@@H](O)C2(F)F)c(=O)n1 [Gemcitabine, gemcitabine]
[1]; [4]
  % T/C on day 9: 100.6%
  % T/C on day 12: 37.8%
  % T/C on day 15: 78.8%
  % T/C on day 19: 64.8%
  % T/C on day 22: 72.0%
  % T/C on day 26: 67.1%
  % T/C on day 29: 61.3%
  % T/C on day 34: 72.8%
  % T/C on day 40: 76.1%
[1]; [5]
  % T/C on day 9: 99.6%
  % T/C on day 12: 39.0%
  % T/C on day 15: 61.0%
  % T/C on day 19: 62.5%
  % T/C on day 22: 48.7%
  % T/C on day 26: 53.0%
  % T/C on day 29: 46.8%
  % T/C on day 34: 52.8%
  % T/C on day 40: 60.4%
[2]; Homo sapiens
  IC50: 0.00028 µM

## N.N.[Cl][Pt][Cl] [Cisplatin, cisplatin]
[2]
  IC50: 10 µM
[3]; [6]
  % Inhibition: 1.6%
  % T/C: 98.4%
[3]; [7]
  % Inhibition: −0.5%
  % T/C: 100.5%
[3]; [8]
  % Inhibition: 6.6%
  % T/C: 93.4%
[3]; [9]
  % Inhibition: 2.2%
  % T/C: 97.8%
[3]; [10]
  % Inhibition: 17.0%
  % T/C: 83.0%
[3]; [11]
  % Inhibition: 24.7%
  % T/C: 75.3%
[3]; [12]
  % Inhibition: 18.5%
  % T/C: 81.5%
[3]; [13]
  % Inhibition: 40.1%
  % T/C: 59.9%
[3]; [14]
  % Inhibition: 27.0%
  % T/C: 73.0%
[3]; [15]
  % Inhibition: 45.7%
  % T/C: 54.3%
[3]; [16]
  % Inhibition: 31.4%
  % T/C: 68.6%
[3]; [17]
  % Inhibition: 60.5%
  % T/C: 39.5%
[3]; [18]
  % Inhibition: 44.7%
  % T/C: 55.3%
[3]; [19]
  % Inhibition: 76.2%
  % T/C: 23.8%
[3]; [20]
  % Inhibition: 50.8%
  % T/C: 49.2%
[3]; [21]
  % Inhibition: 82.9%
  % T/C: 17.1%
